The target in assay [1] is T1, ALDH18A1 Delta-1-pyrroline-5-carboxylate synthase (Homo sapiens, UniProt P54886).
T1 construct: Cells were resuspended in cold PBS on ice and sonicated with a probe sonicator to achieve lysis; endogenous in cells
T1 sequence (P54886 1-795): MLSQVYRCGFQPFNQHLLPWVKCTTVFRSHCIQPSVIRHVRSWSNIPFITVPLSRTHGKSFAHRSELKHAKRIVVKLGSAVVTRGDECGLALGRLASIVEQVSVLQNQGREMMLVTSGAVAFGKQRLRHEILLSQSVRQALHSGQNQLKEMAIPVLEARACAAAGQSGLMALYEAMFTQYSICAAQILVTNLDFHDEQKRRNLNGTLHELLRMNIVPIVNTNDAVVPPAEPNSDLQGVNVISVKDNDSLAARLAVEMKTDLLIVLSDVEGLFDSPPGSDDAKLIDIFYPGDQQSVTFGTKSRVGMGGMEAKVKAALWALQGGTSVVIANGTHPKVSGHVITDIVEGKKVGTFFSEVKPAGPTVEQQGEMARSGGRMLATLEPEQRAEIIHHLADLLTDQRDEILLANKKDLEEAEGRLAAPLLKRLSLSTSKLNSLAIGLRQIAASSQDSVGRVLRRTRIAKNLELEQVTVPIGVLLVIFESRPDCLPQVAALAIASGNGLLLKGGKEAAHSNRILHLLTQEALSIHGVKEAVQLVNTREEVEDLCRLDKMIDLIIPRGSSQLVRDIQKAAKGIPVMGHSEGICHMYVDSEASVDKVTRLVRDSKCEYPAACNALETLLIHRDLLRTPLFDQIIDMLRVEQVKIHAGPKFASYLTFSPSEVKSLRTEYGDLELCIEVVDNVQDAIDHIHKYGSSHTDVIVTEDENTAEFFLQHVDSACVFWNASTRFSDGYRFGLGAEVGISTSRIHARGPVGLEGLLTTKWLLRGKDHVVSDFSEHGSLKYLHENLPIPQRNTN
As to the kind of experiment: Cysteine liganding, probe competition. The format is binding. In a few lines:
(§1)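 Read-out is loss of desthiobiotin iodoacetamide labelling at cysteines, measured on streptavidin-enriched tryptic peptides. Compound preincubation ran 1 hr at 25° C in PBS lysate holding 5 mg/ml proteome before the probe was added.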

The target in assay [2] is T2, KDSR 3-ketodihydrosphingosine reductase (Homo sapiens, UniProt Q06136).
T2 construct: Cells were resuspended in cold PBS on ice and sonicated with a probe sonicator to achieve lysis; endogenous in cells
T2 sequence (Q06136 26-332): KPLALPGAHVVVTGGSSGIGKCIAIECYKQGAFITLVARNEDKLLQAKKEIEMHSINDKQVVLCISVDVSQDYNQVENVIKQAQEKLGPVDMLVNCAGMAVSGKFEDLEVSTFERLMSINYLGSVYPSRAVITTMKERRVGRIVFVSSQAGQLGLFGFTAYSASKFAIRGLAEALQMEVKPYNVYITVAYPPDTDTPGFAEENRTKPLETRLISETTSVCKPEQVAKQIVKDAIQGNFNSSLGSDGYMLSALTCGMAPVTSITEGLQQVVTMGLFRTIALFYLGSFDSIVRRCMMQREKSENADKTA
Kind of assay: Cysteine liganding, probe competition. The class given is binding. Put shortly: as §1

Each structure is given as a SMILES string.

Consider `COc1ccc2c(c1)CCCN2C(=O)CCl` [KB02], for which the Liganded result in assay [1] (ALDH18A1 Res# 612, uniprot P54886) is given as “YES”; in assay [2] (KDSR Res# 121, uniprot Q06136) it was “YES”.

For the compound `O=C(CCl)Nc1cc(C(F)(F)F)cc(C(F)(F)F)c1` [KBO3], in assay [1] (uniprot P54886), the “100 Max” value was determined as 34.21, the 100 ave came to 13.91, the “500 Max” value is 66.31 and the 500 ave stood at 66.23. The compound further displayed a 100 ave in assay [2] (uniprot Q06136) of −22.72. Moreover, in assay [2] (uniprot Q06136, in % (unit assumed)), the “100 Max” value is −22.72.

These data come from patent US20200239530A1, “COMPOUNDS AND METHODS OF MODULATING PROTEIN DEGRADATION” (Vividion Therapeutics, Inc., priority 2017, published 2020).
